Results reported in ChEMBL document CHEMBL5532639, “Heterocyclic pyrimidine derivatives as promising antibacterial agents” (Eur J Med Chem, 2023).
≈ marks a conversion by molar mass, not a printed value.

Key:
Escherichia coli [1] = experiment: Antimicrobial activity against Escherichia coli RCMB 010052 assessed as bacterial growth inhibition by measuring zone of inhibition at 50 ug/ml by agar cup diffusion assay; format: functional; details: read-out: IZ
Streptococcus pneumoniae = experiment: Antimicrobial activity against Streptococcus […] assessed as bacterial growth inhibition by measuring zone of inhibition at 50 ug/ml by agar cup diffusion assay; format: functional; details: read-out: IZ
Bacillus subtilis [2] = experiment: Antimicrobial activity against Bacillus subtilis RCMB 010069 assessed as bacterial growth inhibition by measuring zone of inhibition at 50 ug/ml by agar cup diffusion assay; format: functional; details: read-out: IZ
Bacillus subtilis [3] = experiment: Antibacterial activity against Bacillus subtilis ATCC 465 assessed as reduction in bacterial growth measured after 24 hrs by Mueller-Hinton broth assay; format: functional
Staphylococcus aureus [4] = experiment: microbe, parasite or virus in culture; details: ATCC 25923, 24 h
Description: Antibacterial activity against Staphylococcus aureus ATCC 25923 assessed as reduction in bacterial growth measured after 24 hrs by Mueller-Hinton broth assay

Pseudomonas aeruginosa = experiment: Antibacterial activity against Pseudomonas aeruginosa assessed as reduction in microbial growth by measuring zone of inhibition; format: functional
Bacillus subtilis [5] = experiment: Antibacterial activity against Bacillus subtilis assessed as reduction in microbial growth by measuring zone of inhibition; format: functional
Escherichia coli [6] = experiment: Antibacterial activity against Escherichia coli assessed as reduction in microbial growth by measuring zone of inhibition; format: functional
Staphylococcus aureus [7] = experiment: Antibacterial activity against Staphylococcus aureus assessed as reduction in microbial growth by measuring zone of inhibition; format: functional
Bacillus subtilis [8] = experiment: Antibacterial activity against Bacillus subtilis assessed as zone of inhibition at 20 mg/ml; format: functional; details: read-out: IZ
Sarcina = experiment: Antibacterial activity against Sarcina assessed as zone of inhibition at 20 mg/ml; format: functional; details: read-out: IZ
Staphylococcus aureus [9] = experiment: Antibacterial activity against Staphylococcus aureus assessed as zone of inhibition at 20 mg/ml; format: functional; details: read-out: IZ
Escherichia coli [10] = experiment: Antibacterial activity against Escherichia coli assessed as zone of inhibition at 20 mg/ml; format: functional; details: read-out: IZ
Serratia marcescens = experiment: Antibacterial activity against Serratia marcescens assessed as zone of inhibition at 20 microg/ml; format: functional; details: read-out: IZ
Staphylococcus aureus [11] = experiment: Antibacterial activity against Staphylococcus aureus assessed as bacterial growth inhibition by measuring zone of inhibition at 50 ug/ml by agar cup diffusion assay; format: functional; details: read-out: IZ
Escherichia coli [12] = experiment: Antibacterial activity against Escherichia coli assessed as bacterial growth inhibition by measuring zone of inhibition at 50 ug/ml by agar cup diffusion assay; format: functional; details: read-out: IZ
Salmonella typhimurium [13] = experiment: Antibacterial activity against Salmonella typhimurium DT104 assessed as bacterial growth inhibition by measuring zone of inhibition at 50 ug/ml by agar cup diffusion assay; format: functional, Salmonella enterica subsp. enterica serovar Typhimurium; details: Salmonella enterica, read-out: IZ
Bacillus subtilis [14] = experiment: Antibacterial activity against Bacillus subtilis assessed as bacterial growth inhibition by measuring zone of inhibition at 50 ug/ml by agar cup diffusion assay; format: functional; details: read-out: IZ
Salmonella typhimurium [15] = experiment: Antibacterial activity against Salmonella typhimurium DT104 assessed as reduction in bacterial growth; format: functional, Salmonella enterica subsp. enterica serovar Typhimurium; details: Salmonella enterica
Escherichia coli [16] = experiment: Antibacterial activity against Escherichia coli ATCC 25922 assessed as bacterial growth inhibition; format: functional
Staphylococcus aureus [17] = experiment: Antibacterial activity against Staphylococcus aureus ATCC 3750 assessed as reduction in bacterial growth; format: functional
Bacillus subtilis [18] = experiment: Antibacterial activity against Bacillus subtilis 6633 assessed as reduction in bacterial growth; format: functional

`O=C1OC(c2ccc(C(=O)O)cc2)N=C1/C=C/c1ccc(C(=O)c2cccs2)cc1` (stereo unspecified) was tested, and the zone of inhibition at 50 µg/mL (Escherichia coli [1]) was 17.9 mm, the zone of inhibition at 50 µg/mL (Streptococcus pneumoniae) was 18.6 mm and the zone of inhibition at 50 µg/mL (Bacillus subtilis [2]) was 22.3 mm.
`N#Cc1nc2[nH]c(=O)[nH]c(=O)c2c(-c2ccccc2)c1N` was tested, and the MIC (Bacillus subtilis [3]) was 2 µg/mL (≈ 7.16 µM) and the MIC (Staphylococcus aureus [4]) was 8 µg/mL (≈ 28.6 µM).
`COc1ccc(-c2c(C(=O)c3ccc(C(=O)O)cc3)c(N)nc3nc4ccccc4n23)cc1` was tested, and the zone of inhibition at 50 µg/mL (Escherichia coli [1]) was 17.9 mm, the zone of inhibition at 50 µg/mL (Streptococcus pneumoniae) was 19.3 mm and the zone of inhibition at 50 µg/mL (Bacillus subtilis [2]) was 24.7 mm.
`Clc1ccc(/C=N/Nc2nc(SCc3ccccc3)ncc2I)cc1` was tested, and the “inhibition zone (IZ)” value (Pseudomonas aeruginosa) was 18 mm, the “inhibition zone (IZ)” value (Bacillus subtilis [5]) was 10 mm and the “inhibition zone (IZ)” value (Escherichia coli [6]) was 8 mm. The “inhibition zone (IZ)” value (Staphylococcus aureus [7]) was 10 mm.
For `COc1ccc(Nc2c(C#N)c(N)nc3c(/N=N/c4ccc(S(=O)(=O)Nc5ncccn5)cc4)c(=O)[nH]n23)cc1`, the zone of inhibition at 20000 µg/mL (Bacillus subtilis [8]) was 9 mm, the zone of inhibition at 20000 µg/mL (Sarcina) was 15 mm and the zone of inhibition at 20000 µg/mL (Staphylococcus aureus [9]) was 12 mm. The zone of inhibition at 20000 µg/mL (Escherichia coli [10]) was 15 mm and the zone of inhibition at 20 µg/mL (Serratia marcescens) was 15 mm.
`Cc1ccc(Nc2c(C#N)c(N)nc3c(/N=N/c4ccc(S(=O)(=O)Nc5ncc(C)cn5)cc4)c(=O)[nH]n23)cc1` showed a zone of inhibition at 20000 µg/mL (Bacillus subtilis [8]) of 9 mm, a zone of inhibition at 20000 µg/mL (Sarcina) of 15 mm and a zone of inhibition at 20000 µg/mL (Staphylococcus aureus [9]) of 12 mm. It also gave a zone of inhibition at 20000 µg/mL (Escherichia coli [10]) of 12 mm and a zone of inhibition at 20 µg/mL (Serratia marcescens) of 15 mm.
`Cc1ccc(-c2cc(-c3cc(F)c(Cl)cc3Cl)nc(NC(=O)CSc3nnc(-c4cccnc4N4CCOCC4)o3)n2)cc1` showed a zone of inhibition at 50 µg/mL (Staphylococcus aureus [11]) of 11 mm, a zone of inhibition at 50 µg/mL (Escherichia coli [12]) of 12 mm and a zone of inhibition at 50 µg/mL (Salmonella typhimurium [13]) of 10 mm. For the same compound, the zone of inhibition at 50 µg/mL (Bacillus subtilis [14]) was 8 mm.
For `O=[N+]([O-])c1ccc(Nc2nc(SCc3ccccc3)ncc2I)cc1`, the “inhibition zone (IZ)” value (Pseudomonas aeruginosa) was 10 mm, the “inhibition zone (IZ)” value (Bacillus subtilis [5]) was 14 mm and the “inhibition zone (IZ)” value (Escherichia coli [6]) was 5 mm. For the same compound, the “inhibition zone (IZ)” value (Staphylococcus aureus [7]) was 16 mm.
`O=C1OC(c2ccc(C(=O)O)cc2)N=C1/C=C/c1ccc(C(=O)c2ccc(Cl)cc2)cc1` (stereo unspecified) gave a zone of inhibition at 50 µg/mL (Escherichia coli [1]) of 18.2 mm, a zone of inhibition at 50 µg/mL (Streptococcus pneumoniae) of 21.8 mm and a zone of inhibition at 50 µg/mL (Bacillus subtilis [2]) of 24.3 mm.
In the case of `O=C(CSc1nnc(-c2cccnc2N2CCOCC2)o1)Nc1nc(-c2ccc(Cl)cc2Cl)cc(-c2cc(F)c(Cl)cc2Cl)n1`, the zone of inhibition at 50 µg/mL (Staphylococcus aureus [11]) was 13 mm, the zone of inhibition at 50 µg/mL (Escherichia coli [12]) was 12 mm and the zone of inhibition at 50 µg/mL (Salmonella typhimurium [13]) was 12 mm. It also gave a zone of inhibition at 50 µg/mL (Bacillus subtilis [14]) of 9 mm.
`Cc1nc2scc(-c3ccco3)c2c(=O)n1/N=C/c1ccc(F)cc1F` gave an MIC (Salmonella typhimurium [15]) of 6 µg/mL (≈ 16.2 µM), an MIC (Escherichia coli [16]) of 5 µg/mL (≈ 13.5 µM) and an MIC (Staphylococcus aureus [17]) of 5 µg/mL (≈ 13.5 µM). For the same compound, the MIC (Bacillus subtilis [18]) was 4 µg/mL (≈ 10.8 µM).
For `Cc1nc2scc(-c3ccco3)c2c(=O)n1/N=C/c1ccc([N+](=O)[O-])cc1`, the MIC (Salmonella typhimurium [15]) was 12 µg/mL (≈ 31.5 µM), the MIC (Escherichia coli [16]) was 12 µg/mL (≈ 31.5 µM) and the MIC (Staphylococcus aureus [17]) was 11 µg/mL (≈ 28.9 µM). The MIC (Bacillus subtilis [18]) was 11 µg/mL (≈ 28.9 µM).
Compound `Cc1nc2scc(-c3ccco3)c2c(=O)n1/N=C/c1ccc(Cl)cc1Cl` has an MIC (Salmonella typhimurium [15]) of 5 µg/mL (≈ 12.4 µM), an MIC (Escherichia coli [16]) of 6 µg/mL (≈ 14.8 µM) and an MIC (Staphylococcus aureus [17]) of 4 µg/mL (≈ 9.89 µM). It also gave an MIC (Bacillus subtilis [18]) of 4 µg/mL (≈ 9.89 µM).
Work on `Cc1nc2scc(-c3ccco3)c2c(=O)n1NC(=O)c1ccc(Cl)cc1Cl` yielded an MIC (Salmonella typhimurium [15]) of 6 µg/mL (≈ 14.3 µM), an MIC (Escherichia coli [16]) of 6 µg/mL (≈ 14.3 µM) and an MIC (Staphylococcus aureus [17]) of 5 µg/mL (≈ 11.9 µM). It also gave an MIC (Bacillus subtilis [18]) of 4 µg/mL (≈ 9.52 µM).
In the case of `O=C1OC(c2ccc(C(=O)O)cc2)N=C1/C=C/c1ccc(C(=O)c2ccccc2)cc1` (stereo unspecified), the zone of inhibition at 50 µg/mL (Escherichia coli [1]) was 17 mm, the zone of inhibition at 50 µg/mL (Streptococcus pneumoniae) was 19.3 mm and the zone of inhibition at 50 µg/mL (Bacillus subtilis [2]) was 23.7 mm.
For `N#Cc1nc2[nH]c(=O)[nH]c(=O)c2c(-c2c(Cl)cccc2Cl)c1N`, the MIC (Bacillus subtilis [3]) was 4 µg/mL (≈ 11.5 µM) and the MIC (Staphylococcus aureus [4]) was 64 µg/mL (≈ 184 µM).
Compound `Nc1nc2ncnn2c(-c2ccc(Br)cc2)c1C(=O)c1ccc(C(=O)O)cc1` has a zone of inhibition at 50 µg/mL (Escherichia coli [1]) of 18.3 mm, a zone of inhibition at 50 µg/mL (Streptococcus pneumoniae) of 21.3 mm and a zone of inhibition at 50 µg/mL (Bacillus subtilis [2]) of 28.9 mm.
